Test results taken from patent publication US20020055528A1, “Artemisinin analogs having antimalarial, antiproliferative, and antitumor activities and chemoselective methods of making the same” (priority 1999, published 2002).

Legend:
Assay type in all cases: cell-based
LOX IMVI = experiment: NCI 60 cell line screen (SRB), Melanoma
[1] = system: MB231/ATCC (second line of the wrapped label, with values of its own); experiment: NCI 60 cell line screen (SRB), Breast Cancer
HCC-2998 = experiment: NCI 60 cell line screen (SRB), Colon Cancer
OVCAR-8 = experiment: NCI 60 cell line screen (SRB), Ovarian Cancer
ACHN = experiment: NCI 60 cell line screen (SRB), Renal Cancer
SK-MEL-5 = experiment: NCI 60 cell line screen (SRB), Melanoma
CAKI-1 = experiment: NCI 60 cell line screen (SRB), Renal Cancer
KM12 = experiment: NCI 60 cell line screen (SRB), Colon Cancer
EKVX = experiment: NCI 60 cell line screen (SRB), Non-Small Cell Lung Cancer
HCT-116 = experiment: NCI 60 cell line screen (SRB), Colon Cancer
NCI-H522 = experiment: NCI 60 cell line screen (SRB), Non-Small Cell Lung Cancer
RXF 393 = experiment: NCI 60 cell line screen (SRB), Renal Cancer
HL-60(TB) = experiment: NCI 60 cell line screen (SRB), Leukemia
BT-549 = experiment: NCI 60 cell line screen (SRB), Breast Cancer
MALME-3M = experiment: NCI 60 cell line screen (SRB), Melanoma
786-0 = experiment: NCI 60 cell line screen (SRB), Renal Cancer
DU-145 = experiment: NCI 60 cell line screen (SRB), Prostate Cancer
COLO 205 = experiment: NCI 60 cell line screen (SRB), Colon Cancer
UACC-257 = experiment: NCI 60 cell line screen (SRB), Melanoma
HCT-15 = experiment: NCI 60 cell line screen (SRB), Colon Cancer
OVCAR-4 = experiment: NCI 60 cell line screen (SRB), Ovarian Cancer
RPMI-8226 = experiment: NCI 60 cell line screen (SRB), Leukemia
SNB-75 = experiment: NCI 60 cell line screen (SRB), CNS Cancer
HOP-62 = experiment: NCI 60 cell line screen (SRB), Non-Small Cell Lung Cancer
IGROVI = experiment: NCI 60 cell line screen (SRB), Ovarian Cancer
MDA-N = experiment: NCI 60 cell line screen (SRB), Breast Cancer
PC-3 = experiment: NCI 60 cell line screen (SRB), Prostate Cancer
U251 = experiment: NCI 60 cell line screen (SRB), CNS Cancer

`CC1=C(C=Cc2cccc(C=CC3=C(C)C4CCC(C)C5CCC6(C)OOC45C(O3)O6)c2)OC2OC3(C)CCC4C(C)CCC1C24OO3` (stereo not drawn) [VII-g] was tested, and the Log10TGI (LOX IMVI; PG=0) was −5.06 log10M, the Log10GI50 (LOX IMVI; PG=+50) was −7.07 log10M and the Log10GI50 (LOX IMVI; Table IV (LC50, PG=−50)) was >−4.00 log10M. For the same compound, the Log10GI50 ([1]; PG=+50) was −7.10 log10M, the Log10GI50 ([1]; Table IV (LC50, PG=−50)) was >−4.00 log10M and the Log10TGI (HCC-2998; PG=0) was >−4.00 log10M. For the same compound, the Log10GI50 (HCC-2998; PG=+50) was −6.12 log10M, the Log10TGI (OVCAR-8; PG=0) was >−4.00 log10M and the Log10GI50 (OVCAR-8; PG=+50) was −6.70 log10M. The Log10GI50 (OVCAR-8; Table IV (LC50, PG=−50)) was >−4.00 log10M, the Log10TGI (ACHN; PG=0) was >−4.00 log10M and the “Log10 GI50 or LC50 (see conditions)” value (ACHN; PG=+50) was −6.37 log10M. For the same compound, the “Log10 GI50 or LC50 (see conditions)” value (ACHN; Table IV (LC50, PG=−50)) was >−4.00 log10M, the Log10TGI (SK-MEL-5; PG=0) was −5.16 log10M and the “Log10 GI50 or LC50” value (SK-MEL-5; PG=+50) was −6.71 log10M. For the same compound, the “Log10 GI50 or LC50” value (SK-MEL-5; Table IV (LC50, PG=−50)) was >−4.00 log10M, the Log10GI50 (CAKI-1; PG=+50) was −6.22 log10M and the Log10GI50 (CAKI-1; Table IV (LC50, PG=−50)) was >−4.00 log10M. The Log10TGI (KM12; PG=0) was >−4.00 log10M, the Log10GI50 (KM12; PG=+50) was −7.27 log10M and the Log10GI50 (KM12; Table IV (LC50, PG=−50)) was >−4.00 log10M. For the same compound, the Log10TGI (EKVX; PG=0) was >−4.00 log10M, the Log10GI50 (EKVX; PG=+50) was −7.17 log10M and the Log10GI50 (EKVX; Table IV (LC50, PG=−50)) was >−4.00 log10M. The Log10TGI (HCT-116; PG=0) was >−4.00 log10M, the “Log10 GI50 (PG=+50) or Log10 LC50 (PG=−50), as given per row condition” value (HCT-116; PG=+50) was −7.13 log10M and the “Log10 GI50 (PG=+50) or Log10 LC50 (PG=−50), as given per row condition” value (HCT-116; Table IV (LC50, PG=−50)) was >−4.00 log10M. The Log10TGI (NCI-H522; PG=0) was >−4.00 log10M, the Log10GI50 (NCI-H522; PG=+50) was −6.99 log10M and the Log10GI50 (NCI-H522; Table IV (LC50, PG=−50)) was >−4.00 log10M. The Log10TGI (RXF 393; PG=0) was >−4.00 log10M, the Log10GI50 (RXF 393; PG=+50) was −5.80 log10M and the Log10GI50 (RXF 393; Table IV (LC50, PG=−50)) was >−4.00 log10M. For the same compound, the Log10TGI (HL-60(TB); PG=0) was −7.20 log10M, the Log10GI50 (HL-60(TB); PG=+50) was −7.20 log10M and the Log10GI50 (HL-60(TB); Table IV (LC50, PG=−50)) was >−4.00 log10M. For the same compound, the Log10GI50 (BT-549; PG=+50) was −7.51 log10M, the Log10GI50 (BT-549; Table IV (LC50, PG=−50)) was >−4.00 log10M and the Log10TGI (MALME-3M; PG=0) was −4.24 log10M. For the same compound, the Log10GI50 (MALME-3M; PG=+50) was −6.60 log10M, the Log10GI50 (MALME-3M; Table IV (LC50, PG=−50)) was >−4.00 log10M and the Log10TGI (786-0; PG=0) was >−4.00 log10M. For the same compound, the Log10GI50 (786-0; PG=+50) was −6.10 log10M, the Log10GI50 (786-0; Table IV (LC50, PG=−50)) was >−4.00 log10M and the Log10TGI (DU-145; PG=0) was >−4.00 log10M. For the same compound, the Log10GI50 (DU-145; PG=+50) was −5.71 log10M, the Log10GI50 (DU-145; Table IV (LC50, PG=−50)) was >−4.00 log10M and the Log10TGI (COLO 205; PG=0) was −6.82 log10M. It also gave a Log10GI50 (COLO 205; PG=+50) of −7.50 log10M, a Log10GI50 (COLO 205; Table IV (LC50, PG=−50)) of −4.96 log10M and a Log10TGI (UACC-257; PG=0) of −4.58 log10M. The “Log10 GI50 (PG=+50) or Log10 LC50 (PG=−50)” value (UACC-257; PG=+50) was −7.09 log10M, the “Log10 GI50 (PG=+50) or Log10 LC50 (PG=−50)” value (UACC-257; Table IV (LC50, PG=−50)) was >−4.00 log10M and the Log10TGI (HCT-15; PG=0) was −4.88 log10M. The “log10 GI50 (PG=+50) or LC50 (PG=−50), per row condition” value (HCT-15; PG=+50) was −7.05 log10M, the “log10 GI50 (PG=+50) or LC50 (PG=−50), per row condition” value (HCT-15; Table IV (LC50, PG=−50)) was >−4.00 log10M and the Log10GI50 (OVCAR-4; OVCAR-4, PG=+50) was −6.96 log10M. The Log10GI50 (OVCAR-4; Table IV (LC50, PG=−50), OVCAR−4) was >−4.00 log10M, the Log10TGI (RPMI-8226; PG=0) was −7.25 log10M and the Log10GI50 (RPMI-8226; PG=+50) was −7.25 log10M. The Log10GI50 (RPMI-8226; Table IV (LC50, PG=−50)) was >−4.00 log10M, the “Log10 GI50 (PG=+50) or LC50 (PG=−50)” value (SNB-75; PG=+50) was −6.45 log10M and the “Log10 GI50 (PG=+50) or LC50 (PG=−50)” value (SNB-75; Table IV (LC50, PG=−50)) was >−4.00 log10M. The Log10TGI (HOP-62; PG=0) was >−4.00 log10M, the Log10GI50 (HOP-62; PG=+50) was −6.45 log10M and the Log10GI50 (HOP-62; Table IV (LC50, PG=−50)) was >−4.00 log10M. For the same compound, the Log10TGI (IGROVI; PG=0) was −4.21 log10M, the Log10GI50 (IGROVI; PG=+50) was −5.16 log10M and the Log10GI50 (IGROVI; Table IV (LC50, PG=−50)) was >−4.00 log10M. For the same compound, the Log10TGI (MDA-N; PG=0) was −4.83 log10M, the Log10GI50 (MDA-N; PG=+50) was −6.82 log10M and the Log10GI50 (MDA-N; Table IV (LC50, PG=−50)) was >−4.00 log10M. For the same compound, the Log10TGI (PC-3; PG=0) was >−4.00 log10M, the “Log10 GI50 (PG=+50) or LC50 (PG=−50)” value (PC-3; PG=+50) was −7.32 log10M and the “Log10 GI50 (PG=+50) or LC50 (PG=−50)” value (PC-3; Table IV (LC50, PG=−50)) was >−4.00 log10M. The Log10TGI (U251; PG=0) was >−4.00 log10M, the Log10GI50 (U251; PG=+50) was −6.86 log10M and the Log10GI50 (U251; Table IV (LC50, PG=−50)) was >−4.00 log10M.
